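Method: 48-hour compound exposure of cells in 96-well plates, five concentrations, linear interpolation of endpoints. GI50 marks 50% less growth.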 Activity calls are given as the source filed them. Cut-off read from the data, not from the text of the source: active = GI50 up to about 1.1 µM and inactive = higher.
Columns and labels:
Assay in all cases: NCI anticancer screen, dose series, 48 h
NCI/ADR-RES = test system: NCI/ADR-RES
A498 = test system: A498
NCI-H522 = test system: NCI-H522
EKVX = test system: EKVX
NCI-H226 = test system: NCI-H226
SF-539 = test system: SF-539
U-251 = test system: U-251
DU-145 = test system: DU-145
MDA-MB-231 = test system: MDA-MB-231
OVCAR-5 = test system: OVCAR-5
HOP-92 = test system: HOP-92
LOX IMVI = test system: LOX IMVI
T47D = test system: T47D
SW-620 = test system: SW-620
MDA-MB-435 = test system: MDA-MB-435
PC-3 = test system: PC-3
SNB-75 = test system: SNB-75
K562 = test system: K562
SK-MEL-5 = test system: SK-MEL-5
CCRF-CEM = test system: CCRF-CEM
COLO 205 = test system: COLO 205
SR = test system: SR
OVCAR-3 = test system: OVCAR-3
HCT-15 = test system: HCT-15
A549 = test system: A549
UACC-62 = test system: UACC-62
SF-268 = test system: SF-268
Malme-3M = test system: Malme-3M
NCI-H23 = test system: NCI-H23
786-0 = test system: 786-0
TK-10 = test system: TK-10
SK-MEL-28 = test system: SK-MEL-28
RXF 393 = test system: RXF 393
OVCAR-8 = test system: OVCAR-8
MCF7 = test system: MCF7
M14 = test system: M14
CAKI-1 = test system: CAKI-1
OVCAR-4 = test system: OVCAR-4
SK-MEL-2 = test system: SK-MEL-2
SN12C = test system: SN12C
HCT-116 = test system: HCT-116
KM12 = test system: KM12
IGROV-1 = test system: IGROV-1
SK-OV-3 = test system: SK-OV-3
HT-29 = test system: HT-29
UACC-257 = test system: UACC-257
SF-295 = test system: SF-295
Hs-578T = test system: Hs-578T
HL-60 = test system: HL-60
NCI-H460 = test system: NCI-H460
HOP-62 = test system: HOP-62
MOLT-4 = test system: MOLT-4
HCC 2998 = test system: HCC 2998
ACHN = test system: ACHN
RPMI-8226 = test system: RPMI-8226
SNB-19 = test system: SNB-19
MDA-N = test system: MDA-N
UO-31 = test system: UO-31

## COc1ccc(/C=C2/CSCC3=C2N=C(S)NC3c2ccc(OC)c(OC)c2OC)c(OC)c1OC (stereo not given)
NCI/ADR-RES
  GI50: 7.43 µM (inactive)
A498
  GI50: 19 µM (inactive)
NCI-H522
  GI50: 22.1 µM (inactive)
EKVX
  GI50: 51.3 µM (inactive)
NCI-H226
  GI50: 35 µM (inactive)
SF-539
  GI50: 16.8 µM (inactive)
U-251
  GI50: 7.48 µM (inactive)
DU-145
  GI50: 38.3 µM (inactive)
MDA-MB-231
  GI50: 17.7 µM (inactive)
OVCAR-5
  GI50: 25.2 µM (inactive)
HOP-92
  GI50: < 0.01 µM (active)
LOX IMVI
  GI50: 15.4 µM (inactive)
T47D
  GI50: 43.4 µM (inactive)
SW-620
  GI50: 27.7 µM (inactive)
MDA-MB-435
  GI50: 7.82 µM (inactive)
PC-3
  GI50: 12.1 µM (inactive)
SNB-75
  GI50: 0.209 µM (active)
K562
  GI50: 7.6 µM (inactive)
SK-MEL-5
  GI50: 11.1 µM (inactive)
CCRF-CEM
  GI50: 3.4 µM (inactive)
COLO 205
  GI50: 19.9 µM (inactive)
SR
  GI50: < 0.01 µM (active)
OVCAR-3
  GI50: 43.7 µM (inactive)
HCT-15
  GI50: 25.7 µM
A549
  GI50: 24.8 µM (inactive)
UACC-62
  GI50: 16.8 µM (inactive)
SF-268
  GI50: 16.8 µM (inactive)
Malme-3M
  GI50: 23.2 µM (inactive)
NCI-H23
  GI50: 18.9 µM (inactive)
786-0
  GI50: 13.8 µM (inactive)
TK-10
  GI50: 26.2 µM (inactive)
SK-MEL-28
  GI50: 18.4 µM (inactive)
RXF 393
  GI50: 14.4 µM (inactive)
OVCAR-8
  GI50: 7.52 µM (inactive)
MCF7
  GI50: 0.0798 µM (active)
M14
  GI50: 12.6 µM (inactive)
CAKI-1
  GI50: 36.6 µM (inactive)
OVCAR-4
  GI50: 2.61 µM (inactive)
SK-MEL-2
  GI50: 22.8 µM (inactive)
SN12C
  GI50: 17 µM (inactive)
HCT-116
  GI50: 8.09 µM (inactive)
KM12
  GI50: 12.1 µM (inactive)
IGROV-1
  GI50: 20 µM (inactive)
SK-OV-3
  GI50: 49.7 µM (inactive)
HT-29
  GI50: 12.6 µM (inactive)
UACC-257
  GI50: 14.8 µM (inactive)
SF-295
  GI50: 32.6 µM (inactive)
Hs-578T
  GI50: > 100 µM (inactive)
HL-60
  GI50: 6.34 µM (inactive)
NCI-H460
  GI50: 27.6 µM (inactive)
HOP-62
  GI50: 20.1 µM (inactive)
MOLT-4
  GI50: 3.05 µM (inactive)
HCC 2998
  GI50: 31.3 µM (inactive)
ACHN
  GI50: 19 µM (inactive)
RPMI-8226
  GI50: 3.7 µM (inactive)
SNB-19
  GI50: 20.1 µM (inactive)

## COc1ccc(/C=C2\Sc3nnc(CNc4ccc(Cl)cc4)n3N=C2c2cc(F)c(Cl)cc2Cl)cc1OC
NCI/ADR-RES
  GI50: 17.9 µM (inactive)
A498
  GI50: > 100 µM (inactive)
NCI-H522
  GI50: 27.7 µM (inactive)
EKVX
  GI50: > 100 µM (inactive)
NCI-H226
  GI50: > 100 µM (inactive)
SF-539
  GI50: > 100 µM (inactive)
U-251
  GI50: > 100 µM (inactive)
DU-145
  GI50: 71.6 µM (inactive)
MDA-MB-231
  GI50: > 100 µM (inactive)
OVCAR-5
  GI50: 88.9 µM (inactive)
HOP-92
  GI50: 17 µM (inactive)
LOX IMVI
  GI50: 29.3 µM (inactive)
T47D
  GI50: 44.3 µM (inactive)
SW-620
  GI50: 15.8 µM (inactive)
MDA-MB-435
  GI50: 27.2 µM (inactive)
PC-3
  GI50: 67.1 µM (inactive)
K562
  GI50: 19 µM (inactive)
SK-MEL-5
  GI50: > 100 µM (inactive)
CCRF-CEM
  GI50: 4.97 µM (inactive)
SR
  GI50: 21 µM (inactive)
OVCAR-3
  GI50: 48.1 µM (inactive)
HCT-15
  GI50: 15.9 µM
SF-268
  GI50: 20.6 µM (inactive)
NCI-H23
  GI50: 28.1 µM (inactive)
786-0
  GI50: 24.5 µM (inactive)
TK-10
  GI50: 86.7 µM (inactive)
SK-MEL-28
  GI50: > 100 µM (inactive)
RXF 393
  GI50: 15.8 µM (inactive)
OVCAR-8
  GI50: 24.7 µM (inactive)
MCF7
  GI50: 23.9 µM (inactive)
M14
  GI50: 59.8 µM (inactive)
CAKI-1
  GI50: 23.6 µM (inactive)
OVCAR-4
  GI50: 22.5 µM (inactive)
SK-MEL-2
  GI50: > 100 µM (inactive)
HCT-116
  GI50: 14.8 µM (inactive)
KM12
  GI50: 83.8 µM (inactive)
IGROV-1
  GI50: > 100 µM (inactive)
SK-OV-3
  GI50: > 100 µM (inactive)
HT-29
  GI50: 28.6 µM (inactive)
MDA-N
  GI50: 24 µM (inactive)
UACC-257
  GI50: > 100 µM (inactive)
SF-295
  GI50: > 100 µM (inactive)
Hs-578T
  GI50: 51.2 µM (inactive)
HL-60
  GI50: 45.7 µM (inactive)
NCI-H460
  GI50: 53.6 µM (inactive)
HOP-62
  GI50: > 100 µM (inactive)
MOLT-4
  GI50: 10.9 µM (inactive)
HCC 2998
  GI50: 31 µM (inactive)
ACHN
  GI50: 48.4 µM (inactive)
RPMI-8226
  GI50: 7.57 µM (inactive)
UO-31
  GI50: 56.9 µM (inactive)

## COc1cc(C2c3cc4c(cc3[C@@H](NC3CCN(Cc5ccccc5)CC3)C3COC(=O)[C@H]23)OCO4)cc(OC)c1O (stereo not given in full)
SR
  GI50: < 0.01 µM (active)
SN12C
  GI50: 0.0399 µM (active)

## CC(C)Cc1ccc(C(C)C(=O)O)cc1 (stereo not given) [IBUPROFEN]
NCI-H23
  GI50: > 100 µM (inactive)

Reference: ChEMBL document CHEMBL1201862, “PubChem BioAssay data set” (2004)
